Experimental findings from patent publication US10471046B2, “Method for treating, preventing, or reducing the risk of skin infection” (Melinta Subsidiary Corp., priority 2014, dated 2019) are described below.

Molecules are shown by their SMILES. Converted amounts (≈) assume the structure as drawn. Where two headings read alike, the source gives them in different places.

The experiment relates to S. aureus. Description: Minimum inhibitory concentrations (MICs) for S. aureus of exemplary compounds (Table 2). The format is cell-based. As to conditions: Staphylococcus aureus, read-out: MICs. The text has this: Exemplary compounds in accordance with the invention are listed in Table 2 with their minimum inhibitory concentrations (MICs) (μg/mL) for S. aureus:
Furthermore, the antibiotic compounds can be assayed for anti-proliferative or anti-infective properties on a cellular level. For example, where the target organism is a microorganism, the activity of compounds of interest can be assayed by growing the microorganisms of interest in media either containing or lacking the compound. Growth inhibition can be indicative that the molecule could be acting as a protein synthesis inhibitor. […] For this purpose, a panel of bacterial strains can be assembled to include a variety of target pathogenic species, some containing resistance mechanisms that have been characterized. Use of such a panel of organisms permits the determination of structure-activity relationships not only in regards to potency and spectrum, but also with a view to obviating resistance mechanisms. The assays can be performed in microtiter trays according to conventional methodologies as published by The National Committee for Clinical Laboratory Standards (NCCLS) guidelines (NCCLS. M7-A5-Methods for Dilution Antimicrobial Susceptibility Tests for Bacteria That Grow Aerobically; Approved Standard-Fifth Edition. NCCLS Document M100-S12/M7 (ISBN 1-56238-394-9)).

Setting [1] is: minimum inhibitory concentrations for S. aureus.

For the compound `CC(=O)NC[C@H]1CN(c2ccc(-c3ccc(CNCc4ccc(Cl)cc4Cl)cc3)c(F)c2)C(=O)O1` [Compound 4064, N-(3-{4′-[(2,4-Dichloro-benzylamino)-methyl]-2-fluoro-biphenyl-4-yl}-2-oxo-oxazolidin-5-(S)-ylmethyl)-acetamide], the MIC under setting [1] is 2 µg/mL (≈ 3.87 µM).
Same read-out and setting: next, `CC(=O)NC[C@H]1CN(c2ccc(-c3ccc(CNCCCNc4ncc(C(F)(F)F)cc4Cl)cc3)c(F)c2)C(=O)O1` [Compound 5015, N-[3-(4′-{[3-(3-Chloro-5-trifluoromethyl-pyridin-2-ylamino)-propylamino]-methyl}-2-fluoro-biphenyl-4-yl)-2-oxo-oxazolidin-5-(S)-ylmethyl]-acetamide]: 4 µg/mL (≈ 6.73 µM); `CC(=O)NC[C@H]1CN(c2ccc(-c3ccc(CN4CCOC4=O)cc3)c(F)c2)C(=O)O1` [Compound 1101, N-{3-[2-Fluoro-4′-(2-oxo-oxazolidin-3-ylmethyl)-biphenyl-4-yl]-2-oxo-oxazolidin-5-(S)-ylmethyl}-acetamide]: 0.25 µg/mL (≈ 0.585 µM); `CC(=O)NC[C@H]1CN(c2ccc(-c3ccc(CNCc4ccncc4)nc3)c(F)c2)C(=O)O1` [Compound 4073, N-{3-[3-Fluoro-4-(6-{[(pyridin-4-ylmethyl)-amino]-methyl}-pyridin-3-yl)-phenyl]-2-oxo-oxazolidin-5-(S)-ylmethyl}-acetamide]: 2 µg/mL (≈ 4.45 µM).
Same read-out and setting: under `CC(=O)NC[C@H]1CN(c2ccc(-c3ccc(CNC(=O)C4(N)CC4)cc3)c(F)c2)C(=O)O1` [Compound 4321, 1-Amino-cyclopropanecarboxylic acid {4′-[5-(S)-(acetylamino-methyl)-2-oxo-oxazolidin-3-yl]-2′-fluoro-biphenyl-4-ylmethyl}-amide] stands 2 µg/mL (≈ 4.54 µM); under `CC(=O)NC[C@H]1CN(c2ccc(-c3ccc(Cn4cnc5c(NCCF)ncnc54)cc3)c(F)c2)C(=O)O1` [Compound 1102, N-(3-{2-Fluoro-4′-[6-(2-fluoro-ethylamino)-purin-9-ylmethyl]-biphenyl-4-yl}-2-oxo-oxazolidin-5-(S)-ylmethyl)-acetamide], 1 µg/mL (≈ 1.92 µM).
On the same count and under the same terms, under `CC(=O)NC[C@H]1CN(c2ccc(-c3ccc(Cn4cncn4)cc3)c(F)c2)C(=O)O1` [Compound 1037, N-[3-(2-Fluoro-4′-[1,2,4]triazol-1-ylmethyl-biphenyl-4-yl)-2-oxo-oxazolidin-5-(S)-ylmethyl]-acetamide] stands 0.5 µg/mL (≈ 1.22 µM); under `CC(=O)NC[C@H]1CN(c2ccc(-c3ccc(CNC(=O)Cn4ccnn4)cc3)c(F)c2)C(=O)O1` [Compound 4239, N-{4′-[5-(S)-(Acetylamino-methyl)-2-oxo-oxazolidin-3-yl]-2′-fluoro-biphenyl-4-ylmethyl}-2-[1,2,3]triazol-1-yl-acetamide], 2 µg/mL (≈ 4.29 µM); under `CC(=O)NC[C@H]1CN(c2ccc(-c3ccc(Cn4cc(CN)nn4)cc3)c(F)c2)C(=O)O1` [Compound 1011, N-{3-[4′-(4-Aminomethyl-[1,2,3]triazol-1-ylmethyl)-2-fluoro-biphenyl-4-yl]-2-oxo-oxazolidin-5-(S)-ylmethyl}-acetamide], 1 µg/mL (≈ 2.28 µM).
Take `CC(=O)NC[C@H]1CN(c2ccc(-c3ccc(Cc4c[nH]cn4)cc3)c(F)c2)C(=O)O1` [Compound 1086, N-{3-[2-Fluoro-4′-(1H-imidazol-4-ylmethyl)-biphenyl-4-yl]-2-oxo-oxazolidin-5-(S)-ylmethyl}-acetamide]: the MIC is 0.5 µg/mL (≈ 1.22 µM).
In the case of `CC(=O)NC[C@H]1CN(c2ccc(-c3ccc(C(=N)NCc4ccncc4)cc3)c(F)c2)C(=O)O1` [Compound 4080, N-{3-[2-Fluoro-4′-(N-pyridin-4-ylmethyl-carbamimidoyl)-biphenyl-4-yl]-2-oxo-oxamlidin-5-(S)-ylmethyl}-acetamide], the MIC under setting [1] came to 128 µg/mL (≈ 277 µM).
Still for that read-out and setting: under `CC(=O)NC[C@H]1CN(c2ccc(-c3ccc(Cn4nccn4)cc3)c(F)c2)C(=O)O1` [Compound 1023, N-[3-(2-Fluoro-4′-[1,2,3]triazol-2-ylmethyl-biphenyl-4-yl)-2-oxo-oxazolidin-5-(S)-ylmethyl]-acetamide] stands 0.25 µg/mL (≈ 0.611 µM).
`COc1cc(CN(Cc2ccc(-c3ccc(N4C[C@H](CNC(C)=O)OC4=O)cc3F)cc2)Cc2ccc(O)c(OC)c2)ccc1O` [Compound 4037, N-[3-(4′-{[Bis-(4-hydroxy-3-methoxy-benzyl)-amino]-methyl}-2-fluoro-biphenyl-4-yl)-2-oxo-oxazolidin-5-(S)-ylmethyl]-acetamide]: the MIC under setting [1] worked out at 2 µg/mL (≈ 3.18 µM).
On to `CC(=O)NC[C@H]1CN(c2ccc(-c3ccc(CNCc4ccc(N5CCOCC5)nc4)cc3)c(F)c2)C(=O)O1` [Compound 4118, N-[3-(2-Fluoro-4′-{[(6-morpholin-4-yl-pyridin-3-ylmethyl)-amino]-methyl}-biphenyl-4-yl)-2-oxo-oxazolidin-5-(S)-ylmethyl]-acetamide], for which, under setting [1], the MIC is 8 µg/mL (≈ 15 µM).
The same measure, in the same setting: next, `CC(=O)NC[C@H]1CN(c2ccc(-c3ccc(C(C)NCc4nccs4)cc3)c(F)c2)C(=O)O1` (mixture of isomers) [Compound 4145, N-[3-(2-Fluoro-4′-{1-(R/S)-[(thiazol-2-ylmethyl)-amino]-ethyl}-biphenyl-4-yl)-2-oxo-oxazolidin-5-(S)-ylmethyl]-acetamide]: 2 µg/mL; `CC(=O)NC[C@H]1CN(c2ccc(-c3ccc(CNC(=O)[C@H](Cc4ccccn4)NC(=O)OC(C)(C)C)cc3)c(F)c2)C(=O)O1` [Compound 4303, [1-(S)-({4′-[5-(S)-(Acetylamino-methyl)-2-oxo-oxazolidin-3-yl]-2′-fluoro-biphenyl-4-ylmethyl}-carbamoyl)-2-pyridin-2-yl-ethyl]-carbamic acid tert-butyl ester]: 8 µg/mL (≈ 13.2 µM); `CC(=O)NC[C@H]1CN(c2ccc(-c3ccc(Cn4nnnc4C)cc3)c(F)c2)C(=O)O1` [Compound 1058, N-{3-[2-Fluoro-4′-(5-methyl-tetrazol-1-ylmethyl)-biphenyl-4-yl]-2-oxo-oxazolidin-5-(S)-ylmethyl}-acetamide]: 0.5 µg/mL (≈ 1.18 µM).
Same read-out and setting: under `CC(=O)NC[C@H]1CN(c2ccc(-c3ccc(CNCc4ccc([N+](=O)[O-])o4)cc3)c(F)c2)C(=O)O1` [Compound 4069, N-[3-(2-Fluoro-4′-{[(5-nitro-furan-2-ylmethyl)-amino]-methyl}-biphenyl-4-yl)-2-oxo-oxazolidin-5-(S)-ylmethyl]-acetamide] stands 1 µg/mL (≈ 2.07 µM); under `CC(=O)NC[C@H]1CN(c2ccc(-c3ccc(CNCc4ccccn4)c(F)c3F)c(F)c2)C(=O)O1` [Compound 4090, N-[2-Oxo-3-(2,2′,3′-trifluoro-4′-{[(pyridin-2-ylmethyl)-amino]-methyl}-biphenyl-4-yl)-oxazolidin-5-(S)-ylmethyl]-acetamide], 4 µg/mL (≈ 8.26 µM).
Still for that read-out and setting: under `CC(=O)NC[C@H]1CN(c2ccc(-c3ccc(C(NC(=O)OCc4ccccc4)c4nn[nH]n4)cc3)c(F)c2)C(=O)O1` (mixture of isomers) [Compound 1039, [{4′-[5-(S)-(Acetylamino-methyl)-2-oxo-oxazolidin-3-yl]-2′-fluoro-biphenyl-4-yl}-(2H-tetrazol-5-(R/S)-yl)-methyl]-carbamic acid benzyl ester] stands 128 µg/mL (≈ 229 µM); under `CC(=O)NC[C@H]1CN(c2ccc(-c3ccc(CSc4nncs4)cc3)c(F)c2)C(=O)O1` [Compound 2029, N-{3-[2-Fluoro-4′-([1,3,4]thiadiazol-2-ylsulfanylmethyl)-biphenyl-4-yl]-2-oxo-oxazolidin-5-(S)-ylmethyl}-acetamide], 0.25 µg/mL (≈ 0.545 µM); under `CC(=O)NC[C@H]1CN(c2ccc(-c3ccc(CNC(=O)[C@@H](N)Cc4ccccn4)cc3)c(F)c2)C(=O)O1` [Compound 4302, N-{4′-[5-(S)-(Acetylamino-methyl)-2-oxo-oxazolidin-3-yl]-2′-fluoro-biphenyl-4-ylmethyl}-2-(S)-amino-3-pyridin-2-yl-propionamide], 8 µg/mL (≈ 15.8 µM).
`CC(=O)NC[C@H]1CN(c2ccc(-c3ccc(CNC(C)c4cnn[nH]4)cc3)c(F)c2)C(=O)O1` (mixture of isomers) [Compound 4278, N-[3-(2-Fluoro-4′-{[1-(R/S)-(3H-[1,2,3]triazol-4-yl)-ethylamino]-methyl}-biphenyl-4-yl)-2-oxo-oxazolidin-5-(S)-ylmethyl]-acetamide]: the MIC under setting [1] worked out at 2 µg/mL.
The same measure, in the same setting: next, `CC(=O)NC[C@H]1CN(c2ccc(-c3ccc(CNC(=O)c4ccc5cc[nH]c5c4)cc3)c(F)c2)C(=O)O1` [Compound 4011, 1H-Indole-6-carboxylic acid {4′-[5-(S)-(acetylamino-methyl)-2-oxo-oxazolidin-3-yl]-2′-fluoro-biphenyl-4-ylmethyl}-amide]: 1 µg/mL (≈ 2 µM).
Same read-out and setting: under `CC(=O)NC[C@H]1CN(c2ccc(-c3ccc(NC(=O)NCc4ccncc4)cc3)c(F)c2)C(=O)O1` [Compound 6004, N-{3-[2-Fluoro-4′-(3-pyridin-4-ylmethyl-ureido)-biphenyl-4-yl]-2-oxo-oxazolidin-5-(S)-ylmethyl}-acetamide] stands 1 µg/mL (≈ 2.09 µM); under `CC(=O)NC[C@H]1CN(c2ccc(-c3ccc([C@H](CO)NCc4ccncc4)cc3)c(F)c2)C(=O)O1` [Compound 4202, N-[3-(2-Fluoro-4′-{2-hydroxy-1-(R)-[(pyridin-4-ylmethyl)-amino]-ethyl}-biphenyl-4-yl)-2-oxo-oxazolidin-5-(S)-ylmethyl]-acetamide], 4 µg/mL (≈ 8.36 µM).
Turning to `CC(=O)NC[C@H]1CN(c2ccc(-c3ccc(C(=O)NCCc4scnc4C)cc3)c(F)c2)C(=O)O1` [Compound 4112, 4′-[5-(S)-(Acetylamino-methyl)-2-oxo-oxazolidin-3-yl]-2′-fluoro-biphenyl-4-carboxylic acid [2-(4-methyl-thiazol-5-yl)-ethyl]-amide], the MIC under setting [1] worked out at 0.25 µg/mL (≈ 0.503 µM).
